Consider five compounds from patent US20250154115A1, “ARYLBENZOISOXAZOLE COMPOUNDS AS IP6K AND IPMK INHIBITORS AND METHODS OF USE THEREOF” (THE UNIVERSITY OF NORTH CAROLINA AT CHAPEL HILL, priority 2022, published 2025).

One experiment deals with diet-induced obese mice. As to conditions: cited from earlier work.
The target of another experiment is IP6K1 (Homo sapiens (Human), UniProt Q92551). As to the kind of experiment: Enzyme-coupled assay of IP6K1 activity (Dipp1-coupled, malachite green Pi release). Format: biochemical. The procedure:
(§1) […] The cells were disrupted using a constant cell disruption system (Constant Systems) under 20 kPsi.
(§2) Pi release was determined with a malachite green colorimetric assay.^45 Where indicated, TNP (Cayman Chemical) was added to the assays (FIG. 2A-E).

A further experiment concerns the target IP6K2 (Homo sapiens (Human), UniProt Q9UHH9). As to the kind of experiment: Enzyme-coupled assay of IP6K2 activity (Dipp1-coupled, malachite green Pi release). The experiment is classed as biochemical. The procedure:
as §1, §2

The next experiment deals with IP6K3 (Homo sapiens (Human), UniProt Q96PC2). As to the kind of experiment: Enzyme-coupled assay of IP6K3 activity (Dipp1-coupled, malachite green Pi release). Format: biochemical.
Sequence of IP6K3 (Q96PC2 whole entry): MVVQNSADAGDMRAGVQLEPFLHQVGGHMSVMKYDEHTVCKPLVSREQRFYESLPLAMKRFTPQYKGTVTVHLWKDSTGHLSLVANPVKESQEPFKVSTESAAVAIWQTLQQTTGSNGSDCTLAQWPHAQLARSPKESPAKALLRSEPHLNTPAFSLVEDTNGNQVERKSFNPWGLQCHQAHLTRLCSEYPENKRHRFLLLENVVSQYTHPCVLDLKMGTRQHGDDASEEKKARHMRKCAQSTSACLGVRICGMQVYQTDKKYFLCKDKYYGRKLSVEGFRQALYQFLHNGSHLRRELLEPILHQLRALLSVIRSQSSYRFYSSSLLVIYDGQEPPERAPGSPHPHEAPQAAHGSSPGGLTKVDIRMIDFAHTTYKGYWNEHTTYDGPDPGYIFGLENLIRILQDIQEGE
A further experiment concerns the target IPMK (Homo sapiens (Human), UniProt Q8NFU5). Briefly: Enzyme-coupled assay, IPMK IC50. Format: biochemical.
Where [1] appears, read: determined from enzyme-coupled assays.

SMILES strings stand for the structures.

Sequence of IPMK (Q8NFU5 whole entry, species assumed): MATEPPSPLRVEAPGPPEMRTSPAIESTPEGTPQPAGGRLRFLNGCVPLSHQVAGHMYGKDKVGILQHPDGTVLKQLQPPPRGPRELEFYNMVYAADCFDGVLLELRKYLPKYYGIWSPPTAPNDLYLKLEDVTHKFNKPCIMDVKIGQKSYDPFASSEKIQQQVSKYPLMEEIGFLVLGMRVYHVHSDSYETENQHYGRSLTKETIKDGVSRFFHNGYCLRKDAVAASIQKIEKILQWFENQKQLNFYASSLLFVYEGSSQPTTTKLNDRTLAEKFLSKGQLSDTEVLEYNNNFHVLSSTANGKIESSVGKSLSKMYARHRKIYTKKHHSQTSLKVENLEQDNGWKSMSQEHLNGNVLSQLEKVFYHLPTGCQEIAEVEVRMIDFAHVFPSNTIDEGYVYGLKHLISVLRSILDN
Sequence of IP6K1 (Q92551 whole entry): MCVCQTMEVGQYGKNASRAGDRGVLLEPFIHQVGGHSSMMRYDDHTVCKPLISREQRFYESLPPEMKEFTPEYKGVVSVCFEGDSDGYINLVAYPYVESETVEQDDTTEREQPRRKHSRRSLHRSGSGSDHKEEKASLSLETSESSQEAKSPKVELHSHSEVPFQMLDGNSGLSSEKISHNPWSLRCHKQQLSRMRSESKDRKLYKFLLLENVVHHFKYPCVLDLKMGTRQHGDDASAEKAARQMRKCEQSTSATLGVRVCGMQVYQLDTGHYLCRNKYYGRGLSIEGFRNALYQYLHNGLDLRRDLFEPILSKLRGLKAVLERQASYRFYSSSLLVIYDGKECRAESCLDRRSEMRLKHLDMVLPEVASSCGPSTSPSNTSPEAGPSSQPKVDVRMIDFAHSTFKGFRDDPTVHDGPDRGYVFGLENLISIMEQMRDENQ
Sequence of IP6K2 (Q9UHH9 whole entry): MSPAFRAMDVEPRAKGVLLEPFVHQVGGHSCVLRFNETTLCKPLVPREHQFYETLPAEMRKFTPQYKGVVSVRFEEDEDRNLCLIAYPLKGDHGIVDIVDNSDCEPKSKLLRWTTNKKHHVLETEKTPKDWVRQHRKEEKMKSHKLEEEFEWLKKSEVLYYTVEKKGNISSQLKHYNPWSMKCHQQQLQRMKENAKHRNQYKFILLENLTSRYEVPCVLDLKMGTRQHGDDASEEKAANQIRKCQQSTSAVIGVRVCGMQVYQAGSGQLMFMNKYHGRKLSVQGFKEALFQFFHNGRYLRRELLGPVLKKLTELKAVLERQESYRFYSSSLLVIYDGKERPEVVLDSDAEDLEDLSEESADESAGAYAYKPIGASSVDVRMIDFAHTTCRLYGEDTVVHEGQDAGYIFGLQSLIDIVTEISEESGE

As to `O=[N+]([O-])c1ccc(CNc2nc(NCc3cccc(C(F)(F)F)c3)nc3nc[nH]c23)cc1` [TNP, N2-(m-Trifluorobenzyl)-N6-(p-nitrobenzyl)purine], the “Effect of treatment on obesity, insulin resistance and fatty liver” value in the experiment on diet-induced obese mice is “ameliorates obesity, insulin resistance and fatty liver”.

`O=c1[nH]c(-c2ccc3noc(-c4ccccc4)c3c2)no1` [Cmpd 124]: the half-maximal inhibitory concentration (IC50) – broadly, the concentration that inhibits the measured activity by half – against IP6K1 (setting [1]) lay in the range of 0.1 to 1 µM; at IP6K2 (setting [1]), 0.1 to 1 µM; against IP6K3 (setting [1]), 0.1 to 1 µM; against IPMK (setting [1]) it was 0.01 to 0.1 µM.

Consider `O=c1[nH]c(-c2ccc3noc(-c4ccc(-c5ccccc5)cc4)c3c2)no1` [Cmpd 125], for which the half-inhibitory concentration (IC50) at IP6K1 (setting [1]) was 0.01 to 0.1 µM; at IP6K2 (setting [1]), 0.01 to 0.1 µM; at IP6K3 (setting [1]), less than 0.01 µM; on IPMK (setting [1]), less than 0.01 µM.

`c1cncc(-c2ccc(-c3onc4ccc(-c5nnn[nH]5)cc34)cc2)c1` [Compound 69]: the half-inhibitory concentration (IC50) against IP6K1 (enzyme-coupled assay, Table 4) was 0.01 to 0.1 µM; at IP6K2 (enzyme-coupled assay, Table 4) it was 0.01 to 0.1 µM; against IP6K3 (enzyme-coupled assay, Table 4), 0.1 to 1 µM; at IPMK (enzyme-coupled assay, Table 4), less than 0.01 µM.

Turning to `Clc1ccccc1-c1onc2ccc(-c3nnn[nH]3)cc12` [Compound 76], the half-inhibitory concentration (IC50) at IP6K1 (enzyme-coupled assay, Table 4) was 0.01 to 0.1 µM; against IP6K2 (enzyme-coupled assay, Table 4), 0.01 to 0.1 µM; against IP6K3 (enzyme-coupled assay, Table 4), 0.1 to 1 µM; against IPMK (enzyme-coupled assay, Table 4), less than 0.01 µM.
